Reference: patent publication US20230405140A1, “ANTI-CD56 ANTIBODY-DRUG CONJUGATES AND THEIR USE IN THERAPY” (MCSAF INSIDE ONCOLOGY, priority 2020, published 2023)
Non-standard residues stand in square brackets, D forms with d. Residues, ends and D or L forms follow the SMILES beside them. *: point of attachment. Dolaproine = CO[C@@H]([C@@H]1CCCN1)[C@@H](C)C(=O)O; Dil = CC[C@H](C)[C@H](NC)[C@@H](CC(=O)O)OC; X1 = C[C@@H](N*)[C@@H](O)c1ccccc1; NMeV = CN[C@H](C(=O)O)C(C)C

Tests used:
Assay in all cases: XTT assay, ADC-mediated cytotoxicity
Assay type in all cases: cell-based
MKL-1 CRISPR CD56 = details: 4 days, CD56− cells, read-out: MKL-1 CRISPR CD56 n = 3 IC50
PeTa = details: 4 days, read-out: PeTa n = 3 IC50
Procedure: (§1) To evaluate cell viability and cellular metabolic activity, XTT assays were performed according to standard protocols. WaGa, PeTa, H69, H209, H660 cell lines were plated in 3 replicates in a 96-well plate with 5.10^4 cells/well. […] Untreated cells were used as viability reference. Cells treated with 1% Triton X100 were used as cell death positive control. After 4 days, 25 μL XTT reagent at 1 mg/mL (Alfa Aesar, thermo Fisher) with N-methyl dibenzopyrazine methyl sulfate (PMS) activator (25 μM) was added per well and absorbance was measured at 450 nm after 4 h incubation. Absorbance at 620 nm was used as a reference. Three independent experiments have been performed.

H209 = details: 4 days, read-out: H209 n = 3 IC50
Procedure: as §1

WaGa CRISPR CD56 = details: 4 days, CD56− cells, read-out: WaGa CRISPR CD56 n = 3 IC50
Procedure: as §1

WaGa = details: 4 days, read-out: WaGa n = 3 IC50
Procedure: as §1

H69 = details: 4 days, read-out: H69 n = 3 IC50
Procedure: as §1

CC[C@H](C)[C@@H]([C@@H](CC(=O)N1CCC[C@H]1[C@H](OC)[C@@H](C)C(=O)N[C@H](C)[C@@H](O)c1ccccc1)OC)N(C)C(=O)[C@@H](NC(=O)[C@@H](NC)C(C)C)C(C)C [MMAE, monomethyl auristatin E, reference compound] (H-[NMeV]V[Dil][Dolaproine]-X1)
IC50 (MKL-1 CRISPR CD56): 0.856 nM
IC50 (PeTa): 1.11 nM
IC50 (H209): 2.24 nM
IC50 (WaGa CRISPR CD56): 0.942 nM
IC50 (WaGa): 3.07 nM
IC50 (H69): 0.888 nM
